From patent publication US20070179085A1, “MODULATION OF RHAMM-CAVEOLIN/LIPID RAFT INTERACTIONS TO AFFECT DEVELOPMENT, RESPONSES TO TISSUE INJURY, ANGIOGENESIS, TUMORIGENESIS, METASTASIS AND GROWTH FACTOR/CYTOKINE RESPONSES” (priority 2005, published 2007)

Legend:
[1] = test system: alveolar macrophages; assay: Timelapse cinemicrography of macrophage motility; type: cell-based, rat; conditions: macrophages from bleomycin treated animals, 4 days
Experimental: Freshly isolated cells from bronchoalveolar lavage of saline or bleomycin-treated animals were monitored for their motility using a Nikon TE-300 inverted microscope (Nikon Corp., Tokyo, Japan) to which a video camera (Hamamatsu CCD, Inc., Hamamatsu City, Japan) was attached. Cell locomotion of at least 20 cells per animal was determined using Metamorph (Universal Imaging Corp., Downingtown, Pa.). Cells were plated and maintained at 37° C. and followed for 2 hours with mean velocities calculated every 10 minutes. The effect of anti-RHAMM antibody was examined by adding 5 μg/ml of antibody per plate per treatment 15 minutes before measurement of motility. Non-immune IgG was used as a control. Each experiment was repeated at least three times.

[2] = test system: male Sprague-Dawley rats; assay: Intratracheal bleomycin lung injury: macrophage accumulation (ED1) and lung architecture; type: in vivo, rat
From the text: The Institutional Animal Care and Utilization Committees at both The Childrenls Hospital of Philadelphia and The University of Pennsylvania School of Medicine approved all animal care procedures. Six-week old (200-250 grams) male Sprague-Dawley rats (Charles River Breeding Laboratories, N. Wilmington, Mass.) were housed in the Animal Care Facility of The Children's Hospital of Philadelphia under standard conditions with free access to food and water. Animals were anesthetized with ketamine:xylazine:atropine (16:8:0.01 mg/kg), and the trachea was visualized through a vertical incision in the neck. Using an insulin syringe, 250 μl of either LPS-free saline or 8 units/kg bleomycin sulfate (Bristol Myers Squibb, Princeton, N.J.) in 250 μl of saline was injected into the trachea. The incision was closed with surgical clips, and animals were immediately injected intraperitoneally with either 0.5 mg of anti-RHAMM antibody (R36) or non-immune IgG. Antibody treatment was continued with daily injections of 0.5 mg of either R36 or IgG for either three or six days. At least three animals were examined for each condition, including one set that remained unmanipulated throughout.
Animals were sacrificed on days 4 or 7 after injury. Bronchoalveolar lavage (BAL) was obtained (36 ml/kg, total lung capacity) and immediately centrifuged at 500 g for 10 minutes to remove all cells and cellular debris. Approximately 80-90% of lavage was routinely recovered. The cellular pellet and the supernatant were separated and frozen at −70° C. until further analysis. […]
Macrophage accumulation was quantified by immunofluorescent staining with the rat macrophage specific marker ED1 (Serotec, Raleigh, N.C.). Endogenous fluorescence was blocked with separate exposure to sodium borohydrate (1 g/10 ml PBS, 3 minutes×2) and 1 M glycine in PBS for 30 minutes. […] Three blinded, independent observers counted ED 1 positive cells per high power field to quantify macrophage accumulation in at least three lung sections from each animal. […]

For bleomycin sulfate, the “increase in motility of alveolar macrophages” value [1] was 5 fold, the “increase in macrophage number” value ([2]; IT bleomycin, ED1 positive cells per hpf) was 3 fold and the “macrophage number (ED1 positive cells)” value ([2]; lung sections after IT bleomycin 8 units/kg, R36 0.5 mg ip daily) was 28.4±4.7 cells per hpf. For the same substance, the “lung architecture at seven days” value ([2]; tissue sections, bleomycin-injured rats) was “influx of inflammatory cells with thickening of alveolar septae and early fibrosis”.
